Assay results reported in patent US11020457B2, “Compositions and methods for protecting the kidney from ischemia reperfusion injury” (University of Virginia Patent Foundation, priority 2013, dated 2021).
“Also recorded” adds a separate entry of the source.

Experiments:
C57BL/6 mice [1] = experiment: Renal IRI in WT mice: splenic ferroportin (immunofluorescence) and splenic H-Ferritin (Western blot); assay type: in vivo; conditions: for splenic H-Ferritin: WT hepcidin IRI vs IRI and vs Sham, p<0.05, FIG. 9b
Procedure: (§1) All experiments were performed in accordance with the National Institutes of Health and Institutional Animal Care and Use Guidelines. The Animal Care and Use Committee of the University of Virginia approved all procedures and protocols. C57BL/6 mice from the Jackson Laboratory and hepcidin knockout mice (HAMP−/−), a kind gift from Dr Cindy Roy (John Hopkins University) were used in this study. All experiments were performed on 8-10 weeks old male mice. Kidney ischemia-reperfusion surgery was performed as previously reported (44). The core temperature of the mice was maintained between 34° C. and 36° C. using a heating pad. After anesthetizing the mice (ketamine, 12 mg/ml; atropine, 0.48 mg/ml; xylazine, 24 mg/ml; […] mixture administered per 20 g body weight), bilateral flank incisions were made, both renal pedicles were exposed, and cross-clamped for 26 minutes (severe I/R injury) or 24 minutes (mild I/R injury). After the determined ischemia, clamps were removed, and kidneys were allowed to reperfuse for 24 hours. Ambient postoperative air temperature was maintained between 30° C. and 32° C. until mice had fully recovered. Sham-operated animals underwent bilateral flank incisions without clamping of renal pedicles. Twenty-four hours later, mice were euthanized, and tissues were harvested. […]
(§2) Snap frozen tissue sections were homogenized in Tris-Triton tissue lysis buffer containing complete protease inhibitor cocktail using a Dounce Homogenizer. […] H-Ferritin was measured in the whole kidney and spleen lysates. […] The primary antibodies were detected with Donkey anti-goat Alexa 800 and goat anti-rabbit Alexa 800 antibodies (LiCor Bioscience). Mouse monoclonal GAPDH and β-Actin (Abcam) were used as the loading controls and detected using Donkey anti Mouse Alexa 680 antibody (LiCor Bioscience). Quantitation of data was performed using densitometry software (Licor Bioscience).

[2] = tested on: hepcidin knockout mice (HAMP−/−); experiment: Renal IRI in HAMP-/- mice: serum IL-6 by ELISA; assay type: in vivo; conditions: HAMP-/- IRI Vs HAMP-/- Hepcidin-IRI, p<0.05; FIG. 10b
Procedure: as §1, with “pedicles.” for “pedicles. Twenty-four hours later, mice were euthanized, and tissues were harvested.”
Serum iron (Abcam), hepcidin (Intrinsic Lifescience) and IL-6 levels (eBioscience) were measured using commercial ELISA kits, as per manufacturers instructions.

C57BL/6 mice [3] = experiment: Renal IRI in WT mice: flow cytometry of kidney immune cells; assay type: in vivo; conditions: hepcidin vs untreated IRI, p<0.005
Procedure: as §1, with “hours.” for “hours. Ambient postoperative air temperature was maintained between 30° C. and 32° C. until mice had fully recovered. Sham-operated animals underwent bilateral flank incisions without clamping of renal pedicles. Twenty-four hours later, mice were euthanized, and tissues were harvested.”
Single-cell suspensions from the kidney were prepared using standard methods. […] Flow cytometry data were acquired using BD FACSCalibur (BD Biosciences, San Jose, Calif.) with Cytek eight-color flow cytometry upgrade (Cytek Development, Fremont, Calif.) and analyzed with FlowJo software 9.0 (Tree Star Inc., Ashland, Oreg.). […]

splenocytes from WT mice = experiment: Iron stimulation of splenocytes, IL-6 secretion by ELISA; assay type: cell-based; conditions: 1 μg/mL hepcidin for 4 hours, vs untreated splenocytes; FIG. 10c
Procedure: Splenocytes were harvested from 10-week-old B6 male mice. After excising the spleen, red blood cells were lysed and the remaining splenocytes were seeded at 1×10^6 cells/mL in 24-well tissue culture plates and cultured under 5% CO2 at 37° C. for 24 hours. The culture medium consisted of RPMI 1640 medium supplemented with 10% fetal calf serum (FCS), 100 U/mL penicillin, 100 μg/mL streptomycin, 1% non-essential amino acids (Gibco/Life Technologies, Foster, Calif., USA), 2 mM L-glutamine (Sigma), and 50/μM 2-mercaptoethanol. After resting for 24 hours, the cells were treated with 10 μM […] (FAC), 1 μg/mL hepcidin or saline for 4 hours. The cell culture supernatants were harvested and quantified for the levels of IL-6 by ELISA (eBioscience).

[4] = Proteinuria (data not shown); assay type: in vivo
[5] = tested on: hepcidin knockout mice (HAMP−/−); experiment: Renal IRI in HAMP-/- mice: splenic ferroportin and splenic H-Ferritin; assay type: in vivo; conditions: for splenic H-Ferritin: HAMP-/- Hepcidin-IRI vs HAMP-/- IRI and vs Sham, p<0.005, FIG. 9c
Procedure: All experiments were performed in accordance with the National Institutes of Health and Institutional Animal Care and Use Guidelines. The Animal Care and Use Committee of the University of Virginia approved all procedures and protocols. C57BL/6 mice from the Jackson Laboratory and hepcidin knockout mice (HAMP−/−), a kind gift from Dr Cindy Roy (John Hopkins University) were used in this study. All experiments were performed on 8-10 weeks old male mice. Kidney ischemia-reperfusion surgery was performed as previously reported (44). The core temperature of the mice was maintained between 34° C. and 36° C. using a heating pad. After anesthetizing the mice (ketamine, 12 mg/ml; atropine, 0.48 mg/ml; xylazine, 24 mg/ml; […] mixture administered per 20 g body weight), bilateral flank incisions were made, both renal pedicles were exposed, and cross-clamped for 26 minutes (severe I/R injury) or 24 minutes (mild I/R injury). After the determined ischemia, clamps were removed, and kidneys were allowed to reperfuse for 24 hours. Ambient postoperative air temperature was maintained between 30° C. and 32° C. until mice had fully recovered. Sham-operated animals underwent bilateral flank incisions without clamping of renal pedicles. Twenty-four hours later, mice were euthanized, and tissues were harvested.
Snap frozen tissue sections were homogenized in Tris-Triton tissue lysis buffer containing complete protease inhibitor cocktail using a Dounce Homogenizer. Membrane fractions were isolated from the whole kidney lysate using membrane isolation kit (Thermo Pierce) to determine ferroportin expression. H-Ferritin was measured in the whole kidney and spleen lysates. […] The primary antibodies were detected with Donkey anti-goat Alexa 800 and goat anti-rabbit Alexa 800 antibodies (LiCor Bioscience). Mouse monoclonal GAPDH and β-Actin (Abcam) were used as the loading controls and detected using Donkey anti Mouse Alexa 680 antibody (LiCor Bioscience). Quantitation of data was performed using densitometry software (Licor Bioscience).

C57BL/6 mice [6] = experiment: Renal IRI in WT mice: Western blot of kidney ferroportin and H-Ferritin; assay type: in vivo; conditions: for kidney ferroportin expression (membrane fraction): pretreatment with hepcidin, p<0.01, FIG. 5a-b
Procedure: as §1, §2

Substance: Mouse hepcidin 25 (DTNFPICIFCCKCCNNSQCGICCKT; listed as Mus musculus)
- splenic H-Ferritin (C57BL/6 mice [1]): increased splenic H-Ferritin levels
- splenic H-Ferritin (C57BL/6 mice [1]; listed as hepcidin): significantly higher H-Ferritin compared to both untreated IRI mice and sham controls
- splenic ferroportin expression (C57BL/6 mice [1]; hepcidin treatment, renal IRI, FIG. 9a bottom panel): dramatic decrease in surface expression of ferroportin; also recorded: degradation of ferroportin
- serum IL-6 levels [2]: prevented IRI-induced increase in IL-6 levels; also recorded: significantly reduced serum IL6 compared to untreated
- frequency of kidney CD45+ cells (C57BL/6 mice [3]; FIG. 4b-c): reduced renal inflammatory cell infiltration by almost half
- kidney neutrophils (C57BL/6 mice [3]; FIG. 4c): significantly reduced IRI-induced renal neutrophil inflammation
- IL-6 secretion into supernatants (splenocytes from WT mice): no significant difference in IL-6 levels
- proteinuria [4]: reducing proteinuria
- splenic H-Ferritin [5]: increased splenic H-Ferritin levels
- splenic H-Ferritin ([5]; listed as hepcidin): significantly higher H-Ferritin compared to both untreated IRI mice and sham controls
- splenic ferroportin expression ([5]; hepcidin reconstitution in HAMP-/- mice, renal IRI): lower ferroportin expression than sham-operated mice
- kidney H-Ferritin expression (C57BL/6 mice [6]; hepcidin-IRI Vs IRI p<0.005, Vs Sham p<0.05, FIG. 5c-d): significantly higher H-Ferritin expression compared to both untreated IRI mice and sham mice; also recorded: prevented
- kidney ferroportin expression (membrane fraction) (C57BL/6 mice [6]): prevented the IRI induced upregulation
- kidney ferroportin expression (membrane fraction) (C57BL/6 mice [6]; listed as hepcidin): levels comparable to sham mice
